Laboratory results: patent publication US20230152314A1, “LIPOCALIN-2 ASSAY FOR INTESTINAL ADAPTATION” (THE JOHNS HOPKINS UNIVERSITY, priority 2020, published 2023)
Entries after “also recorded” stand apart in the source; their conditions may differ.

Tests used:
WT SBR mice = assay: I3C (AHR agonist) supplementation in SBR mice: weight gain; format: in vivo, mouse; conditions: WT SBR mice vs DMSO-treated control, postoperative days 3-7, p=0.04 at day 7
From the text: In one experiment, AHR agonists are studied in our SBR model. The purpose of this experiment is to study AHR activation via a dietary supplement, which has tremendous potential as a translational approach. Under our ACUC-approved protocol, we will perform a 75% SBR on the same four groups [n=12 mice in each group] of C57Bl/6J mice: WT, LCN2-/-, AHR-/- and AHR-/-LCN2-/-. Sham-operated WT, LCN2-/-, AHR-/- and AHR-/-LCN2-/- C57Bl/6J mice [n=12 mice in each group] will serve as controls. Mice will be randomized to receive either the AHR agonist, indole-3-carbinol […]) (Sigma, 17256, St Louis, Mo.) at a dose of 15-20 mg/kg, dissolved in DMSO, or DMSO alone mixed into the liquid diet. The rodent liquid diet containing […] will be maintained for the duration of the postoperative period. Control mice will receive DMSO only. Mice will be weighed daily. One week later, the mice will be anesthetized for tissue collection and analyses performed.

[1] = test system: Proteobacteria, Bacteroidetes, Firmicutes of fecal microbiome; assay: Rescue IL-22 therapy: relative abundance of fecal microbiome groups by q-PCR; format: in vivo, mouse; conditions: WT SBR mice, POD 7, q-PCR
Procedure: (§1) Rescue IL-22 Therapy for SBR WT Mice. Following a 75% SBR, WT mice were treated daily for six days via intraperitoneal injections with either 100 μL PBS as control or 100 μL PBS containing 4 μg rmIL-22 (PeproTECH, 210-22) as treatment. At post-operative day (POD) 7, intestinal tissue and cecal contents were collected after euthanasia. The relative abundance of Proteobacteria, Bacteroidetes, Firmicutes, Lactobacillus and Enterobacteriaceae of fecal microbiome and Reg3b and Reg3g genes in the intestine were assessed by q-PCR.
(§2) Quantitative real-time PCR. Gene quantification was carried out with iTap Universal SYBR Green Supermix (Bio-rad, 172-5124, Hercules, Calif., USA) on a CFX96 Touch Real-time PCR system (Bio-rad) according to the manufacturer's instructions and calculated with 2^−ΔΔCT method. Thermal cycling was performed at 95° C. for 5 min, followed by 40 cycles at 95° C. for 15 s, 60° C. 10s, 72° C. for 30 s. Primers for transcriptional levels of Lcn2, IL-6.

[2] = test system: Reg3b, Reg3g and Tnf-α genes in the intestine; assay: Rescue IL-22 therapy: transcriptional levels of intestinal genes by q-PCR; format: in vivo, mouse; conditions: WT SBR mice
Procedure: as §1
RNA Extraction and Reverse Transcription. Total RNA from tissue was extracted according to the manufacturer's instructions (QIAGEN, RNeasy Mini Kit, 74106). Genomic DNA was eliminated from RNA, and total RNA (0.5 μg) was reverse transcribed to cDNA with QuantiTect Reverse Transcription Kit according to the manufacturer's protocol (QIAGEN, 205311, Germantown, Md., USA).
as §2

[3] = test system: WT SBR mice (75% SBR model of short bowel syndrome); assay: Rescue IL-22 therapy for SBR WT mice: body weight and villus length; format: in vivo, mouse
Procedure: Creation of a clinically relevant model of short bowel syndrome in the mouse. In our laboratory, we established the model previously described by Helmrath et al.^18 Briefly, the hair on the abdomen of the mouse was removed by depilatory creams, and the abdomen was scrubbed with three rounds of betadine, prior to making an incision. Through a 1.5 cm midline laparotomy, the small bowel was examined. The 75% SBR was performed by transecting 3 cm distal to the ligament of Treitz and 6 cm proximal to the cecum. The intervening proximal small bowel (approximately 18 cms) was removed. Intestinal continuity was restored with a primary end-to-end jejunoileal anastomosis using 8-0 Nylon suture. The sham operation (SHA) was performed by transecting the small bowel 6 cm proximal to the cecum and immediately creating a primary end-to-end ileoileal anastomosis. Subcutaneous closure was performed with a running absorbable 4-0 Vicryl suture. Cutaneous closure was completed by interrupted 4-0 silk sutures. All animals received 1 mL of saline subcutaneously before and immediately after procedure.
After surgery, mice were offered free access to water for the first 24 hours. Fresh rodent liquid diet was provided and body weight was measured daily. Bromodeoxyuridine (BrdU) (Invitrogen, 00-0103) was administered through intraperitoneal injection (ip) 24 hours before euthanasia. Intestinal permeability was evaluated with FITC-Dextran intestinal permeability assay as described below. Serum, intestinal issue, liver, and cecal content were collected after euthanasia.
Morphometric Analysis. The jejunum and ileum were fixed in 10% neutral buffered formalin for 24 hours. […] Villus length in jejunum and ileum was measured under light microscopy (EVOS FL Auto Imaging System). At least 30 well-oriented intact villi were counted per mouse.
Rescue IL-22 Therapy for SBR WT Mice. […] The relative abundance of Proteobacteria, Bacteroidetes, Firmicutes, Lactobacillus and Enterobacteriaceae of fecal microbiome and Reg3b and Reg3g genes in the intestine were assessed by q-PCR.

Th22 cells = assay: Th22 cell differentiation with and without LCN2, IL-22 ELISA of supernatant; format: cell-based, mouse; conditions: rmLCN2 1 ug/mL, 5 days
Procedure: Naïve CD4^+ T Lymphocytes Isolation and Th22 cells Differentiation. We isolated naïve CD4+ T cells as previously described by Bedoya S K et al.^22 Briefly, splenic tissue was removed from 6-week old C57BL/6J male mice and ground into a single cell suspension under a sterile hood. Red blood cells (RBC) were removed by using ammonium-chloride-potassium (ACK) lysing buffer (Quality Biological, 118-156-101, Gaithersburg, Md., USA) at RT for 3 minutes. Naïve CD4+ T cells were isolated from total splenocyte by magnetic activated cell sorting (MACS) based on positive selection using CD4 (L3T4) MicroBeads (Miltenyi Biotec, 130-117-043, Bergisch-Gladbach, Germany) according to the manufacturer's instructions. The purity of naive CD4+ T cells was more than 97%, as measured by flow cytometry.
For Th22 cell differentiation, CD4+ T cells were stimulated in complete media (RPMI 1640 with 2 mM L-glutamine, 10% FBS, […] 1-ME, 100 U/ml penicillin-streptomycin) with plate-bound anti-CD3ε (Clone 145-2C11, 1 ug/mL, BD; 550275) and soluble anti-CD28 (Clone 37.51, 2 ug/ml, BD, 553295) for 5 days under polarizing condition for Th22 cells (IL-6 20 ng/mL, IL-β 10 ng/mL, TNF-α 10 ng/mL)^23 with and without mouse recombinant (rm) LCN2 (1 ug/mL, R&D, 1857-LC-050). Cell supernatant was collected for IL-22 ELISA analysis (Invitrogen, 88-7422-22) according to the manufacturer's instructions.

[4] = jejunum and colon, especially in the colon
[5] = POD 7, compared to PBS-treated group

OCc1c[nH]c2ccccc12 [I3C, indole-3-carbinol]
weight gain following SBR (WT SBR mice): increases; also recorded: significant increase

rmIL-22: recombinant mouse IL-22 (PeproTECH, 210-22), given intraperitoneally in PBS
relative abundance of Bacteroidetes [1]: increased | relative abundance of Firmicutes [1]: increased | relative abundance of Proteobacteria [1]: decreased | Reg3b transcriptional level [2, 4]: robust increase | Reg3g transcriptional level [2, 4]: robust increase | transcriptional levels of Tnf-α ([2]; jejunum, inflammation): increased | body weight lost ([3]; POD 7, 4 μg rmIL-22 ip daily for six days): 7.5% | length of villi in ileum [3, 5]: no difference | length of villi in jejunum [3, 5]: significantly longer

B1: LCN2: mouse recombinant (rm) LCN2 (R&D, 1857-LC-050) added to Th22 polarizing culture (protein, UniProt P11672 21-200, looked up)
Neutrophil …: QDSTQNLIPAPSLLTVPLQPDFRSDQFRGRWYVVGLAGNAVQKKTEGSFTMYSTIYELQENNSYNVTSILVRDQDQGCRYWIRTFVPSSRAGQFTLGNMHRYPQVQSYNVQVATTDYNQFAMVFFRKTSENKQYFKITLYGRTKELSPELKERFTRFAKSLGLKDDNIIFSVPTDQCIDN
levels of IL-22 protein expression from Th22 cells (Th22 cells): significantly decreased
